In PubChem BioAssay (NCI):
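Cells were grown in 96-well plates and exposed to each compound for 48 hours at five concentrations; endpoints were interpolated linearly between bracketing concentrations, or set to the highest concentration if not reached. GI50 = concentration required for 50% inhibition of growth. TGI: total growth inhibition.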

What was measured:
Assay in all cases: inhibition of tumour cell growth, NCI panel, 48 h
COLO 205 colon = test system: COLO 205 colon
HCT-15 colon = test system: HCT-15 colon
IGROV1 ovarian = test system: IGROV1 ovarian
LOX IMVI melanoma = test system: LOX IMVI melanoma
OVCAR-8 ovarian = test system: OVCAR-8 ovarian
SK-MEL-2 melanoma = test system: SK-MEL-2 melanoma
SK-OV-3 ovarian = test system: SK-OV-3 ovarian
SNB-75 CNS = test system: SNB-75 CNS
U251 CNS = test system: U251 CNS
EKVX NSCLC = test system: EKVX NSCLC

Structure (SMILES) | GI50 (COLO 205 colon) [µM] | TGI (COLO 205 colon) [µM] | GI50 (HCT-15 colon) [µM] | TGI (HCT-15 colon) [µM] | GI50 (IGROV1 ovarian) [µM] | TGI (IGROV1 ovarian) [µM] | GI50 (LOX IMVI melanoma) [µM] | TGI (LOX IMVI melanoma) [µM] | GI50 (OVCAR-8 ovarian) [µM] | TGI (OVCAR-8 ovarian) [µM] | TGI (SK-MEL-2 melanoma) [µM] | GI50 (SK-OV-3 ovarian) [µM] | TGI (SK-OV-3 ovarian) [µM] | GI50 (SNB-75 CNS) [µM] | TGI (SNB-75 CNS) [µM] | GI50 (U251 CNS) [µM] | TGI (U251 CNS) [µM] | TGI (EKVX NSCLC) [µM] | GI50 (EKVX NSCLC) [µM] | GI50 (SK-MEL-2 melanoma) [µM]
C[C@@H]1C=C2C(=O)O[C@@H]3CC[C@H](C1)[C@]23O | 4.64 | 15.7 | 3 | 18.1 | 2.87 | 10.4 | 3.33 | 13.3 | 4.04 | 28.6 | 11.4 | 15.5 | 64.3 | 3.33 | 20.2 | 13.9 | 27.5 |  |  | 
COc1ccc2c(c1)OC[C@@H]1c3cc4c(cc3O[C@H]21)OCO4 |  | > 100 |  | > 100 |  |  |  | > 100 |  | > 100 | > 100 |  | > 100 |  | 69.2 |  | > 100 | > 100 |  | 
Cc1ccc(C)c(NC(=O)CC/C(=N\NC(=O)C(N)=O)C(C)C(=O)c2ccc(O)cc2)c1 (stereo not given) |  | > 100 |  | > 100 |  | > 100 |  | > 100 |  | > 100 | > 100 |  | > 100 |  |  |  | > 100 | > 100 |  | 
O=c1c2ccccc2c2nc3ccccc3nc2n1C1CCCCC1 |  | > 100 |  | > 100 |  | > 100 |  |  |  | > 100 | > 100 |  | > 100 |  | > 100 |  | > 100 | > 100 |  | 
Cc1nc(NC(=O)CCCN2C(=O)c3cccc4cccc(c34)C2=O)sc1C(=O)Nc1cc(C(=O)NCCCN(C)C)n(C)c1 | > 100 | > 100 | > 100 | > 100 | > 100 | > 100 | > 100 | > 100 |  |  | > 100 | > 100 | > 100 | > 100 | > 100 | > 100 | > 100 | > 100 | > 100 | > 100
Cc1ccc(C)c(-c2csc(Nc3ccc(C)c(C)c3)n2)c1 | > 100 | > 100 | 4.08 | > 100 | 62.8 | > 100 | > 100 | > 100 | 74.7 | > 100 | > 100 | > 100 | > 100 | 15.8 | 53.2 | 52.9 | > 100 |  |  | > 100
Cn1cc(C2=C(c3cn(CCN)c4ccccc34)C(=O)NC2=O)c2ccccc21 | 2.7 | 7.15 | 6.79 | > 25 | 9.3 | > 21 | 6.05 | > 22.8 | 6.3 | > 22.3 | 12.1 | 6.17 | 24.4 | 0.587 | 6.72 | 5.61 | > 20.5 |  |  | 5.12
COc1ccc2nc3ccccc3c(NCCCCCCN(C)CCCl)c2c1 |  | 1.52 |  | 2.01 |  |  |  | 0.515 |  | 1.81 | 1.81 |  | 2.04 |  | 2.73 |  | 1.75 | 3.45 |  | 
CCN(CC)C(=O)COc1ccc(Br)cc1Br |  | > 100 |  | > 100 |  |  |  | > 100 |  |  | > 100 |  | > 100 |  | > 100 |  | > 100 | 58 |  | 
